Data from patent publication US20200030262A1, “THERAPEUTIC SIGMA 1 RECEPTOR AGONISTS FOR TREATING LONG QT SYNDROME TYPE 1, TYPE 2, TYPE 6, TYPE 8 AND RELATED CHANNELOPATHIES” (priority 2017, published 2020).

Key:
[1] = test system: Timothy syndrome cardiomyocytes; test: Analysis of cardiomyocyte contractions, Timothy syndrome cardiomyocytes; type: cell-based, human; details: for contraction irregularity / spontaneous beating rate: 5 μM, 2 hours; for contraction irregularity, long-term repeated treatment / spontaneous beating rate, long-term repeated treatment: 10 μM twice a day for seven days; for rhythmic contraction and cell survival: 10 μM, 7 days, vs untreated control group at day 27; for effects on Timothy syndrome cardiomyocytes: contraction irregularity and beating rate
Procedure: […] The contraction analysis was performed as reported previously (Yazawa et al., 2011). The movies were taken before the treatment, and 2 hours after the treatment of each compound on the intact monolayer Timothy syndrome cardiomyocytes. The contraction rate and the irregularity value of each sample before and after treatment were compared using paired Student t-test.

[2] = test system: Timothy syndrome cardiomyocytes; test: Current-clamp action potential recordings in Timothy syndrome cardiomyocytes; type: cell-based, human; details: 2 hr; for paced action potential duration: paced 0.2 Hz
Procedure: The Timothy syndrome and control iPSCs were differentiated into cardiomyocytes following a protocol reported previously (Song et al., 2015). The cardiomyocytes were dissociated into single cells for whole-cell patch-clamp recordings at day 31 and used for patch clamping between day 35 and 45. Whole-cell patch-clamp recordings of iPSC-derived cardiomyocytes were conducted using a MultiClap 700B patch-clamp amplifier (Molecular Devices) and an inverted microscope equipped with differential interface optics (Nikon, Ti-U). The glass pipettes were prepared using borosilicate glass (Sutter Instrument, BF150-110-10) using a micropipette puller (Sutter Instrument, Model P-97). Voltage-clamp measurements were conducted using an extracellular solution consisting of 5 mM BaCl2, 160 mM TEA and 10 mM HEPES (pH7.4 at 25° C.) and a pipette solution of 125 mM CsCl, 0.1 mM CaCl2, 10 mM EGTA, 1 mM MgCl2, 4 mM MgATP and 10 mM HEPES (pH 7.4 with CsOH at 25° C.). The protocol for voltage-clamp recordings was that cells were held at −90 mV and then depolarized to −10 mV for 400 ms at a rate of 0.1 Hz for the Ba^2+ current recordings; cells were held at −90 mV, stimulated with a 2-s family of pulses from −90 to +20 for the current-voltage relationship of the Ba^2+ currents. The recordings were conducted under room temperature. […] The recordings were conducted at 37° C. Cardiac action potentials were stimulated (2 ms, 1 nA) in current clamp mode at 37° C. (0.2 or 0.5 Hz). Recorded action potentials were analyzed using Clampfit 10.4 (Axon Instruments). Control recordings were obtained from cardiomyocytes without treatment.
Patch-Clamp Electrophysiology of the cardiomyocytes was done as described in Example 1.

[3] = test system: Timothy syndrome cardiomyocytes; test: Calcium imaging (FluoForte) of spontaneous calcium transients in Timothy syndrome cardiomyocytes; type: cell-based, human; details: 5 μM, 30 min
Procedure: (§1) The Nikon automatic microscope (Nikon Eclipse TiE with a motorized stage) connected to sCMOS camera (Andor Zyla sCMOS 4.2 MP) together with a stage top incubator (at 37° C., 5% CO2 and 20% O2, controlled by TOKAI HIT Hypoxia gas delivery system) were used for this experiment. Nikon objective lens 40× (Nikon CFI Plan Apo Lambda, NA 0.95) was used for single cell recordings and the cardiomyocyte culture media was used as bath solution. The cells were loaded with FluoForte calcium dye for calcium imaging following the manufacturer's instruction (ENZ-51016, Enzo Life Sciences). […] Thirty minutes after the treatment of Fluvoxamine or PRE-084, a second recording was acquired from the same cell. The calcium transient duration and the calcium transient half (50%) decay time from the recordings before and after treatment were analyzed. Paired student's t-test was used for statistics.

control cardiomyocytes [4] = test: Analysis of cardiomyocyte contractions, healthy control cardiomyocytes; type: cell-based, human; details: 5 μM, 2 hours
control cardiomyocytes [5] = test: Calcium imaging of spontaneous calcium transients in control cardiomyocytes; type: cell-based, human; details: 5 μM, 30 min
Procedure: as §1

LQTS1 cardiomyocytes = test: Action potential recordings in LQTS1 cardiomyocytes; type: cell-based, human
Procedure: (§2) The Timothy syndrome and control iPSCs were differentiated into cardiomyocytes following a protocol reported previously (Song et al., 2015). The cardiomyocytes were dissociated into single cells for whole-cell patch-clamp recordings at day 31 and used for patch clamping between day 35 and 45. Whole-cell patch-clamp recordings of iPSC-derived cardiomyocytes were conducted using a MultiClap 700B patch-clamp amplifier (Molecular Devices) and an inverted microscope equipped with differential interface optics (Nikon, Ti-U). The glass pipettes were prepared using borosilicate glass (Sutter Instrument, BF150-110-10) using a micropipette puller (Sutter Instrument, Model P-97). Voltage-clamp measurements were conducted using an extracellular solution consisting of 5 mM BaCl2, 160 mM TEA and 10 mM HEPES (pH7.4 at 25° C.) and a pipette solution of 125 mM CsCl, 0.1 mM CaCl2, 10 mM EGTA, 1 mM MgCl2, 4 mM MgATP and 10 mM HEPES (pH 7.4 with CsOH at 25° C.). The protocol for voltage-clamp recordings was that cells were held at −90 mV and then depolarized to −10 mV for 400 ms at a rate of 0.1 Hz for the Ba^2+ current recordings; cells were held at −90 mV, stimulated with a 2-s family of pulses from −90 to +20 for the current-voltage relationship of the Ba^2+ currents. The recordings were conducted under room temperature. […] Recorded action potentials were analyzed using Clampfit 10.4 (Axon Instruments). […]

LQTS6 cardiomyocytes = test: Paced action potential recordings in LQTS6 cardiomyocytes; type: cell-based, human; details: 5 μM, 2 hr; paced 0.5 Hz; M54T mutation in MiRP1
sodium channels = details: reported (Johannessen et al., 2009); cited from earlier work
[6] = test system: isogenic control (Ctrl) iPSC-derived cardiomyocytes; test: Paced action potential recordings in isogenic control iPSC-derived cardiomyocytes; type: cell-based, human; details: 5 uM, 2 hr
Procedure: as §2

[7] = test system: Timothy syndrome iPSC-derived cardiomyocytes; test: GCaMP6f-based calcium imaging in Timothy syndrome iPSC-derived cardiomyocytes; type: cell-based, human; details: 5 uM, 2 hr
hERG current IKr [8] = biological target: T1, hERG current IKr (Homo sapiens, UniProt Q12809); type: cell-based; details: 5 uM, 2 hr; E-4031-sensitive current
T1 construct: hERG current IKr in Timothy syndrome iPSC-derived cardiomyocytes; endogenous in cells; host or cells: Timothy syndrome iPSC-derived cardiomyocytes
T1 sequence (Q12809 whole entry): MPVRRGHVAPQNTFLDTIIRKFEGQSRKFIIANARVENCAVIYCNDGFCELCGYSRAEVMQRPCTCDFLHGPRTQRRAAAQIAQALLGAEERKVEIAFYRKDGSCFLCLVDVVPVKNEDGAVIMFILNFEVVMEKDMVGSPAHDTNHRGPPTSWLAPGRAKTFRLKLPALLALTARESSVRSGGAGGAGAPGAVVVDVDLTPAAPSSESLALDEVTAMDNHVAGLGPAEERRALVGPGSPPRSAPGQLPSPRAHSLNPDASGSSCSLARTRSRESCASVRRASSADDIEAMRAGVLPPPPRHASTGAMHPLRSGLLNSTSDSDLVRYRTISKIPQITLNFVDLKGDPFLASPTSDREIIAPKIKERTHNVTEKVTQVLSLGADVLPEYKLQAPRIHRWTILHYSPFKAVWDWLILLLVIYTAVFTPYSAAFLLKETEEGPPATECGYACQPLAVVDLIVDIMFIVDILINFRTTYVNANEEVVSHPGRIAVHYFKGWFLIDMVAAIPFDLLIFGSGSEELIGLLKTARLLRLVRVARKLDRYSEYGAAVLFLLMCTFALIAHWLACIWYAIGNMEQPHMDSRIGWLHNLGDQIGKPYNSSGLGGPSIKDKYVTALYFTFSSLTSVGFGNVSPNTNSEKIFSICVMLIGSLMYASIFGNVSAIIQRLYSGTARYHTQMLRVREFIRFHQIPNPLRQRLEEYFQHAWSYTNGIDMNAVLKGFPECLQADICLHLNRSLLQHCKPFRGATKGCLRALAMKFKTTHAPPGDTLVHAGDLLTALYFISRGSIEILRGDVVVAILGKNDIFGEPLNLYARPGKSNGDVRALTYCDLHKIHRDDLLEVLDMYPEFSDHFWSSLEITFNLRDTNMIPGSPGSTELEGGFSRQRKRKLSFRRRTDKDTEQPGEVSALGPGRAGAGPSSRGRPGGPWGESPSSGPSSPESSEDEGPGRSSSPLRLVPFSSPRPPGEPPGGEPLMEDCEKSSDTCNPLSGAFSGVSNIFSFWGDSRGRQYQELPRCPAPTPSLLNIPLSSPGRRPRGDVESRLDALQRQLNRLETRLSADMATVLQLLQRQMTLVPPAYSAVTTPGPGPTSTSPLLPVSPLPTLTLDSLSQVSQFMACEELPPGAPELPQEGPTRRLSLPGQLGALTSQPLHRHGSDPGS
Procedure: (§3) The following pulse protocol was used: 5-s voltage clamp applied from 10 mV to 50 mV (Δ20 mV, holding at −40 mV, 0.1 Hz, at 25° C.). After recordings, the extracellular solution was switched to one containing 1 μM E-4031 (TOCRIS). E-4031-sensitive current was measured and analyzed as IKr current using Clampfit 10.4 (Axon Instruments).

[9] = test system: long QT syndrome type 2 iPSC-derived cardiomyocytes; test: Action potential recordings in long QT syndrome type 2 iPSC-derived cardiomyocytes; type: cell-based, human; details: 5 uM, 2 hr
Procedure: as §2

hERG current IKr [10] = type: cell-based, human; details: 5 uM, 2 hr; E-4031-sensitive current
Procedure: as §3

Timothy syndrome mice = test: Mouse electrocardiography, Timothy syndrome mouse model; type: in vivo; details: in drinking water
Procedure: A model mouse for Timothy Syndrome was generated by targeting the Rosa26 locus with a G406R mutant in the calcium channel Cacna1c gene (see FIG. 10A). The experimental design for inducing the expression of Timothy syndrome mutant with Dxm treatment (about 28 mg/kg) is shown in FIG. 10B.
(§4) Subcutaneous 4-lead electrocardiograms of isoflurane-anesthetized 12-week old mice were performed using emka ECG and recorded using iox 2.8.0.19. Recordings were conducted a day 4 and 11 after tamoxifen (Sigma-Aldrich, 50 μg/B.W.(g)/day/mouse, i.e., approximately 1 mg/day/mouse) was administrated at day 1-3. Dxm was resolved to drinking water. Total amount of taken dextromethorphan was estimated based on water consumption in each mouse (23-44 mg/kg). To obtain accurate amount of dextromethorphan administration in mice, the concentration of dextromethorphan in the plasma was measured and analyzed at Columbia University Biomarkers Core Laboratory. RR and QT intervals were measured manually using ecgAUTO v2.8.1.27, Excel and Prism 6/7 software.

control littermate mice = test: Mouse electrocardiography, control littermate mice; type: in vivo; details: in drinking water
Procedure: as §4

[11] = Dxm concentration in the plasma of mice; type: in vivo, mouse; details: adult normal mice, Dxm in drinking water
Procedure: as §4

Sigma-1R = Sigma-1R (Homo sapiens, UniProt Q99720); details: cited from earlier work
Chain of Sigma-1R (Q99720 whole entry, species assumed): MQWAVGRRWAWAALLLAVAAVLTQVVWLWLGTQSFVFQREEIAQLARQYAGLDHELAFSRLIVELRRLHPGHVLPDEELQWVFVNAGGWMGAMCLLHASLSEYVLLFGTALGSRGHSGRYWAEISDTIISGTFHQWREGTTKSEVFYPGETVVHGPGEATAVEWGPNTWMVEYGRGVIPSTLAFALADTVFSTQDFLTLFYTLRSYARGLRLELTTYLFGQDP

COCCCC/C(=N\OCCN)c1ccc(C(F)(F)F)cc1 [Fluvoxamine]
contraction irregularity [1]: significantly decreased | spontaneous beating rate [1]: increased | contraction irregularity, long-term repeated treatment [1]: reduced | spontaneous beating rate, long-term repeated treatment [1]: significantly enhanced | rhythmic contraction and cell survival [1]: enhanced | paced action potential duration ([2]; 5 μM): reduced | abnormal spontaneous calcium transients [3]: alleviated | spontaneous calcium transient duration [3]: significantly reduced | spontaneous calcium transient half decay time [3]: significantly reduced | contraction rhythmicity of control cardiomyocytes (control cardiomyocytes [4]): did not significantly affect | spontaneous beating rate of control cardiomyocytes (control cardiomyocytes [4]): significantly enhanced | calcium transient duration in control cardiomyocytes (control cardiomyocytes [5]): did not significantly affect | calcium transient half decay time in control cardiomyocytes (control cardiomyocytes [5]): did not significantly affect | normal calcium transients in control cardiomyocytes (control cardiomyocytes [5]): did not significantly affect | prolonged paced action potentials (APD90) in LQTS1 cardiomyocytes (LQTS1 cardiomyocytes; 5 μM, 2 hr, paced 0.5 Hz, G269S mutation in KCNQ1): significantly reduced | prolonged paced action potentials (APD90) in LQTS6 cardiomyocytes (LQTS6 cardiomyocytes): significantly reduced

COc1ccc(CNc2nc(NCc3ccc(OC)cc3)c3ncn(C4CCCCC4)c3n2)cc1 [Myoseverin-B]
effects on Timothy syndrome cardiomyocytes [1]: positive effects

CCCN(CCC)CCc1ccc(OC)c(OCCc2ccccc2)c1 [NE-100]
beneficial effects of Fluvoxamine under co-treatment with NE-100 ([1]; Fluvoxamine 5 μM + NE-100 5 μM, 2 hr): blocked

CC(C)CC(=O)Nc1[nH]nc2c1CN(C(=O)C1CCN(C)CC1)C2(C)C [PHA-793887]
effects on Timothy syndrome cardiomyocytes [1]: positive effects

O=C(OCCN1CCOCC1)C1(c2ccccc2)CCCCC1 [PRE-084]
contraction irregularity [1]: decreased | spontaneous beating rate [1]: significantly increased | contraction irregularity, long-term repeated treatment [1]: reduced | spontaneous beating rate, long-term repeated treatment [1]: significantly enhanced | rhythmic contraction and cell survival [1]: enhanced | abnormal spontaneous action potentials ([2]; 5 μM): rescued | paced action potential duration ([2]; 5 μM): rescued | abnormal spontaneous calcium transients [3]: alleviated | spontaneous calcium transient duration [3]: significantly reduced | spontaneous calcium transient half decay time [3]: significantly reduced | contraction rhythmicity of control cardiomyocytes (control cardiomyocytes [4]): did not significantly affect | spontaneous beating rate of control cardiomyocytes (control cardiomyocytes [4]): significantly enhanced | calcium transient duration in control cardiomyocytes (control cardiomyocytes [5]): did not significantly affect | calcium transient half decay time in control cardiomyocytes (control cardiomyocytes [5]): did not significantly affect | normal calcium transients in control cardiomyocytes (control cardiomyocytes [5]): did not significantly affect | effects on sodium channels (sodium channels): little effects

COc1ccc(CCN2CCN(CCCc3ccccc3)CC2)cc1OC [SA4503]
beating rate or contraction irregularity ([1]; 0.1 μM): no obvious improvement | contractions of Timothy syndrome cardiomyocytes ([1]; dose between 1 μM to 5 μM): stopped the contractions

COc1ccc2c(c1)[C@]13CCCC[C@@H]1[C@H](C2)N(C)CC3 [dextromethorphan]
action potential duration (APD90) in Timothy syndrome iPSC-derived cardiomyocytes ([2]; 5 uM, paced): significantly shortened | action potential duration in long QT syndrome type 1 iPSC-derived cardiomyocytes (LQTS1 cardiomyocytes; treated vs untreated): significantly shortened | action potential duration (APD90) in isogenic control cells [6]: not changed | cardiac transient duration [7]: significantly shortened | cardiac transient frequency [7]: significantly increased | IKr current in Timothy syndrome iPSC-derived cardiomyocytes (hERG current IKr [8]): significantly increased | action potential duration in long QT syndrome type 2 iPSC-derived cardiomyocytes [9]: significantly shortened | IKr current in long QT syndrome type 2 iPSC-derived cardiomyocytes (hERG current IKr [10]): significantly increased | QT intervals in Timothy syndrome mice (Timothy syndrome mice; approximately 28 mg/kg, day 4): significantly shortened | QT intervals in Timothy syndrome mice (Timothy syndrome mice; day 11): significantly shortened | QT intervals in control littermate mice (control littermate mice): no significant effect | plasma concentration of Dxm [11]: 5 to 10 ng/mL | Ki (Sigma-1R; read-out: Ki (Sigma-1R), known as Sigma-1R agonist): 0.15 µM

Fc1ccc([C@@H]2CCNC[C@H]2COc2ccc3c(c2)OCO3)cc1 [paroxetine]
effects on Timothy syndrome cardiomyocytes [1]: no beneficial effects | affinity for sigma 1 receptor (Sigma-1R): low affinity
